Data published in patent publication US10960084B2, “Modulation of fluid intake” (California Institute of Technology, priority 2018, dated 2021).
Entries after “also recorded” stand apart in the source; their conditions may differ.

What was measured:
[1] = tested on: SFO^nNOS neurons; experiment: Salt/Mannitol loading with fiber photometry of SFO^nNOS/MnPO^nNOS neurons and drinking; type: in vivo, mice
Method: Salt/Mannitol Loading Experiments: 150 μL/300 μL of 2 M NaCl or 300 μL of 2 M Mannitol was injected intraperitoneally at the end of the acclimatization period. For FIGS. 1P-T and FIGS. 7P-S, CNO or vehicle (water) was injected 10 min prior to NaCl/Mannitol injection. We measured bulk fluorescence signals using fiber photometry as previously described^[26]. Briefly, 490 nm and 405 nm LEDs ([…] and […]) were collimated and delivered to the brain. The light intensity was kept less than 100 μW during all recordings. The fluorescence signal was then focused onto a femtowatt photoreceiver (Newport, Model 2151). The modulation and demodulation were done with an RP2.1 real time processor (Tucker-Davis Technologies) running custom software. The licks from the lickometer were simultaneously recorded as real-time TTL signals to the RP2.1. Fluorescence changes were analyzed using custom MATLAB (MathWorks) code as described previously^[26]. Data were extracted and subjected to a low pass filter at 1.8 Hz. A linear function was used to scale up the 405 nm channel signal to the 490 nm channel signal to get the fitted 405 nm signal. The resultant ΔF/F was calculated as (raw 490 nm signal-fitted 405 nm signal)/(fitted 405 nm signal). For brief access tests, the Area Under Curve (ΣΔFduring) was quantified by integrating the fluorescence signals during the bout. For all bouts, the mean fluorescence for 30 s prior to the first lick was calculated and subtracted from the entire session. ΔF changes (ΔFpost-ΔFpre) were calculated by subtracting the mean fluorescence signal during the 2-s period before the first lick from the mean signal during the 2-s at 1 min after the bout. For displaying traces, the fluorescence data was time-binned by a factor of 2.5 times the sampling frequency and down-sampled to 1 Hz. For long-term tests, the Area Under Curve was calculated for 2.5 min after the start of the bout. […] For […]), the first bout at the start of the session and the last bout within 10 min of access were used. The AUC for the PSTHs were calculated during the first or the last 15 seconds.

[2] = tested on: MnPO^nNOS neurons; experiment: Drinking assays with chemogenetic inhibition of MnPO^nNOS neurons by CNO; type: in vivo, mice; details: hM4Di in MnPO^nNOS, CNO injection 10 mg/kg
Method: For water-restriction experiments, animals were provided with 1 mL of water daily. For food restriction experiments, animals were provided 0.5 pellets/20 g body weight daily. All assays were performed in a modified lickometer as described previously^[35] or Biodaq monitoring system (Research Diets Inc). For all photometry assays, animals were acclimatized for 10-15 min in the lickometer cage before stimuli were given.
Long-term access assays: Optogenetic Testing—For FIGS. 1L-N and FIGS. 7L-O, satiated mice were given ad libitum access to water for 20 min with photostimulation. Photostimulation was delivered for 1-s followed by 3-s intervals throughout the behavioral sessions. For FIGS. 2J-M and FIGS. 11C-E, mice were given access to water for 20 min after 24 h water-restriction, and photostimulation was delivered for the first 10 min. For feeding assays (FIGS. 2J-M), animals were single-housed in Biodaq cages after 24 h food-restriction, and chow intake was measured for 20 min with or without light stimulation. For acute inhibition experiments, mice were given access to 150 mM NaCl (FIGS. 5D-E, FIGS. 13E-F), water (FIGS. 1L-N, FIGS. 7L-O, FIGS. 13A-D, FIGS. 13G-H) for 20-30 min after 24 h water-restriction or 300 mM sucrose (FIGS. 1L-N, FIGS. 7L-O) after food-restriction. For all acute inhibition experiments, CNO was injected at 10 mg/kg body weight, 30 min prior to the start of the behavior session. For acute activation experiments, CNO was injected at 1 mg/kg body weight (FIGS. 12L-M), 30 min prior to the start of the behavior session. For FIG. 3A, FIGS. 9A-C, and FIG. 13L, water or saline access was provided for 30 min after 24 hours of water restriction. For FIGS. 4A-B, water or HydroGel (ClearH2O) in a cup was provided for 30 min after 24 and 36 hours of water restriction, respectively. The weight of the cup was measured before and after the behavior session. For FIGS. 4K-L, 0.5 pellets of chow was provided for 30 min after 24 h food-restriction. The entire session was recorded using a camera at 30 fps and ingestion episodes were manually annotated. […]

[3] = GCaMP6s fiber photometry, MnPO^nNOS inhibited by CNO

Structure (SMILES): C[N+]1([O-])CCN(C2=Nc3cc(Cl)ccc3Nc3ccccc32)CC1 [CNO, clozapine-N-oxide]
- calcium increases / activity of SFO^nNOS neurons by mannitol-induced osmotic stress [1, 3]: unaffected; also recorded: without changing the activity
- calcium increases in SFO^nNOS neurons by NaCl-induced osmotic stress [1, 3]: unaffected
- drinking behavior after Mannitol injection ([1]; hM4Di in MnPO^nNOS, CNO 10 min prior to intraperitoneal Mannitol): intensely suppressed drinking responses; also recorded: drastically suppressed drinking behavior
- drinking behavior after NaCl injection ([1]; hM4Di in MnPO^nNOS, CNO 10 min prior to intraperitoneal NaCl): intensely suppressed drinking responses; also recorded: drastically suppressed drinking behavior
- SFO^nNOS-stimulated water intake ([2]; SFO^nNOS photostimulation): severely suppressed water consumption; also recorded: severely reduced
- sucrose (300 mM) consumption ([2]; food-restricted animals): did not decrease sugar; also recorded: did not suppress sucrose consumption
- dehydration-induced water intake ([2]; water-restricted animals): severely suppressed water consumption; also recorded: severely reduced
